Source: patent EP2975030B1, “DIHYDROPYRIDAZINE-3,5-DIONE DERIVATIVE” (Chugai Seiyaku Kabushiki Kaisha, priority 2013, dated 2014)

Tested on: rat small-intestinal brush border membrane vesicles
Assay: Inhibitory effect on 33PO4 uptake into rat small-intestinal brush border membrane vesicles (rapid filtration method)
Assay type: biochemical, Wistar female rat
Conditions: 1 µM test compound, 33PO4 uptake into rat small-intestinal BBMVs, 60 seconds
Experimental: The ^33PO4 transport activity of the small-intestinal BBMVs was determined by the rapid filtration method. […] Then, ice-cold buffer C (110 mM NaCl, 1 mM KH2PO4, and 10 mM HEPES (pH 7.5)) was added to each reaction mixture, which was immediately suction-filtered through a Millipore filter. The filter was washed with buffer C, and each sample was then dissolved in a liquid scintillator. The amount of ^33PO4 uptake into BBMVs was measured using a liquid scintillation counter. […]

`CN1N(Cc2ccc(OCCN3C4CCC3COC4)c(F)c2F)C(=O)C(C(=O)Nc2ccc(C(F)(F)F)cc2-c2cc(C(F)(F)F)ncn2)=C(O)C12CCC2` [Example 340] was tested, and the “Rate of uptake inhibition (%) (1 µM)” value was 63%.
In the case of `COCC(C)(C)N(C)CCOc1ccc(CN2C(=O)C(C(=O)Nc3ccc(C(F)(F)F)cc3-c3cc(C(F)(F)F)ncn3)=C(O)C3(CCCC3)N2C)c(F)c1F` [Example 372], the “Rate of uptake inhibition (%) (1 µM)” value is reported as 38%.
With `CN(CCOCCC(=O)NCC(O)CO)CCOc1ccc(CN2C(=O)C(C(=O)Nc3ccc(C(F)(F)F)cc3-c3cc(C(F)(F)F)ncn3)=C(O)C3(CCCC3)N2C)c(F)c1F` (stereo not drawn) [Example 426] the “Rate of uptake inhibition (%) (1 µM)” value was 24%.
For `CN1N(Cc2ccc(OCCN3CCOCC3)c(F)c2F)C(=O)C(C(=O)Nc2ccc(C(F)(F)F)cc2-c2ncnc(C(F)(F)F)c2Cl)=C(O)C12CCC2` [Example 284], the “Rate of uptake inhibition (%) (1 µM)” value was 46%.
For `CN1[C@@H](C(C)(C)C)C(O)=C(C(=O)Nc2cnc(C(F)(F)F)nc2-c2ccc(C(F)(F)F)nc2)C(=O)N1Cc1ccc(OCCN2CCOCC2)c(F)c1F` [Example 273], the “Rate of uptake inhibition (%) (1 µM)” value was 41%.
`CN(CCOc1ccc(CN2C(=O)C(C(=O)Nc3ccc(C(F)(F)F)cc3-c3cc(C(F)(F)F)ncn3)=C(O)C3(CCCC3)N2C)c(F)c1F)C1CCOCC1` [Example 365] was tested, and the “Rate of uptake inhibition (%) (1 µM)” value was 34%.
For “(4aR)-1-[(3-Fluorophenyl)methyl]4-hydroxy-N-[5-methyl-2-(trifluoromethyl)furan-3-yl]-2-oxo-4a-propyl-6,7-dihydro-5H-pyrrolo[1,2-b]pyridazine-3-carboxamide [Example 11]”, the “Rate of uptake inhibition (%) (1 µM)” value was 22%.
With `CN1N(Cc2ccc(OCCCCCOC[C@H](O)CO)c(F)c2F)C(=O)C(C(=O)Nc2ccc(C(F)(F)F)cc2-c2ccc(C(F)(F)F)nc2)=C(O)C12CCCC2` [Example 388] the “Rate of uptake inhibition (%) (1 µM)” value was 15%.
For `COc1cccc(-c2cc(C(F)(F)F)ccc2NC(=O)C2=C(O)[C@@]3(C)CCCN3N(Cc3ccc(C#CCOCCCCO)c(F)c3F)C2=O)c1OC` [Example 123, (4aR)-1-[[2,3-Difluoro-4-[3-(4-hydroxybutoxy)prop-1-ynil]phenyl]methyl]-N-[2-(2.3-dimethoxyphenyl)-4-(trifluoromethyl)phenyl]-4-hydroxy-4a-methyl-2-oxo-6,7-dihydro-5H-pyrrolo[1,2-b]pyridazine-3-carboxamide], the “Rate of uptake inhibition (%) (1 µM)” value was 87%.
In the case of `C[C@]12CCCN1N(Cc1cccc(Cl)c1F)C(=O)C(C(=O)Nc1ccc(C(F)(F)F)cc1-c1cc(C(F)(F)F)ncn1)=C2O` [Example 209], the “Rate of uptake inhibition (%) (1 µM)” value is reported as 76%.
In the case of `CC(C)[C@@H]1C(O)=C(C(=O)Nc2ccc(Cl)cc2-c2ccc(C(F)(F)F)nc2)C(=O)N(Cc2cccc(F)c2F)N1C` [Example 251], the “Rate of uptake inhibition (%) (1 µM)” value is reported as 43%.
`C[C@]12CCCN1N(Cc1cccc(F)c1F)C(=O)C(C(=O)Nc1ccc(Br)cc1-c1cc(C(F)(F)F)ncn1)=C2O` [Example 64] was tested, and the “Rate of uptake inhibition (%) (1 µM)” value was 77%.
`Cc1c(-c2cc(C(F)(F)F)ccc2NC(=O)C2=C(O)C3(CCCC3)N(C)N(Cc3ccc(OCCN4CCOCC4)c(F)c3F)C2=O)ncnc1C(F)(F)F` [Example 290] was tested, and the “Rate of uptake inhibition (%) (1 µM)” value was 59%.
For `Cc1c(-c2cc(C(F)(F)F)ccc2NC(=O)C2=C(O)[C@H](C(C)(C)C)N(C)N(Cc3ccc(OCCN4CCOCC4)c(F)c3F)C2=O)ncnc1C(F)(F)F` [Example 278], the “Rate of uptake inhibition (%) (1 µM)” value was 69%.
For `CCC12CCCCN1N(Cc1cccc(F)c1F)C(=O)C(C(=O)Nc1cc(C)oc1C(F)(F)F)=C2O` (stereo not drawn) [Example 19, 1-[2,3-(Difluorophenyl)methyl]-4a-ethyl-4-hydroxy-N-[5-methyl-2-(trifluoromethyl)furan-3-yl]-2-oxo-5,6,7,8-tetrahydropyrido[1,2-b]pyridazine-3-carboxamide], the “Rate of uptake inhibition (%) (1 µM)” value was 41%.
In the case of `C[C@]12CCCN1N(Cc1ccc(F)c(Br)c1)C(=O)C(C(=O)Nc1ccc(C(F)(F)F)cc1-c1cc(C(F)(F)F)ncn1)=C2O` [Example 184], the “Rate of uptake inhibition (%) (1 µM)” value is reported as 79%.
In the case of `CN1N(Cc2ccc(OCCCOC[C@H](O)CO)c(F)c2F)C(=O)C(C(=O)Nc2ccc(C(F)(F)F)cc2-c2cc(C(F)(F)F)ncn2)=C(O)C12CCCC2` [Example 392], the “Rate of uptake inhibition (%) (1 µM)” value is reported as 47%.
In the case of `CN1N(Cc2ccc(OCCN3CCOC(C)(C)C3)c(F)c2F)C(=O)C(C(=O)Nc2ccc(C(F)(F)F)cc2-c2cc(C(F)(F)F)ncn2)=C(O)C12CCC2` [Example 342], the “Rate of uptake inhibition (%) (1 µM)” value is reported as 43%.
In the case of `C[C@@H]1COC[C@H](C)N1CCOc1ccc(CN2C(=O)C(C(=O)Nc3ccc(C(F)(F)F)cc3-c3cc(C(F)(F)F)ncn3)=C(O)C3(CCCC3)N2C)c(F)c1F` [Example 370], the “Rate of uptake inhibition (%) (1 µM)” value is reported as 41%.
For `C[C@]12CCCN1N(Cc1cccc(F)c1F)C(=O)C(C(=O)Nc1ccc(Br)c(F)c1)=C2O` [Example 28], the “Rate of uptake inhibition (%) (1 µM)” value was 72%.
For `CC1(C)CC[C@]2(C)C(O)=C(C(=O)Nc3cc(C(F)(F)F)ccc3-c3ccc(C(F)(F)F)nc3)C(=O)N(Cc3cccc(F)c3F)N12` [Example 63], the “Rate of uptake inhibition (%) (1 µM)” value was 72%.
For `C[C@]12CCCN1N(Cc1cccc(F)c1F)C(=O)C(C(=O)Nc1ccc(C(F)(F)F)cc1-c1cnc(Cl)cn1)=C2O` [Example 74], the “Rate of uptake inhibition (%) (1 µM)” value was 82%.
With `C[C@]12CCCN1N(Cc1cc(F)ccc1F)C(=O)C(C(=O)Nc1ccc(C(F)(F)F)cc1-c1ccc(C(F)(F)F)nc1)=C2O` [Example 172] the “Rate of uptake inhibition (%) (1 µM)” value was 72%.
For `CN1N(Cc2ccc(OCCN3CCOC(=O)C3)c(F)c2F)C(=O)C(C(=O)Nc2ccc(C(F)(F)F)cc2-c2cc(C(F)(F)F)ncn2)=C(O)C12CCC2` [Example 337, 8-[[2,3-Difluoro-4-[2-(2-oxomorpholin-4-yl)ethoxy]phenyl]methyl]1-5-hydroxy-9-methyl-7-oxo-N-[4-(trifluoromethyl)-2[6-(trifluoromethyl)pyrimidin-4-yl]phenyl]-8,9-diazaspiro[3.5]non-5-ene-6-carboxamide], the “Rate of uptake inhibition (%) (1 µM)” value was 47%.
In the case of `Cc1cc(NC(=O)C2=C(O)[C@H]3CCCN3N(Cc3cccc(F)c3)C2=O)c(C(F)(F)F)o1` [Example 2, (4aR)-1-[(3-Fluorophenyl)methyl]-4-hydroxy-N-[5-methyl-2-(trifluoromethyl)furan-3-yl]-2-oxo-4a,5,6,7-tetrahydropyrrolo[1,2-b]pyridazine-3-carboxamide], the “Rate of uptake inhibition (%) (1 µM)” value is reported as 19%.
With `COC(C)(C)CN(C)CCOc1ccc(CN2C(=O)C(C(=O)Nc3ccc(C(F)(F)F)cc3-c3cc(C(F)(F)F)ncn3)=C(O)C3(CCC3)N2C)c(F)c1F` [Example 350] the “Rate of uptake inhibition (%) (1 µM)” value was 45%.
In the case of `CN1[C@@H](C(C)(C)C)C(O)=C(C(=O)Nc2ccc(C(F)(F)F)cc2-c2ccc(C(F)(F)F)nc2)C(=O)N1Cc1cccc(F)c1F` [Example 238], the “Rate of uptake inhibition (%) (1 µM)” value is reported as 47%.
In the case of `COc1cccc(-c2cc(C(F)(F)F)ccc2NC(=O)C2=C(O)[C@@]3(C)CCCN3N(Cc3ccc(C#CCOCCOCCO)c(F)c3F)C2=O)c1OC` [Example 139], the “Rate of uptake inhibition (%) (1 µM)” value is reported as 88%.
In the case of “6-[[2,3-Difluoro-4-[1-(2-methoxyethyl)azetidin-3-yl]oxyphenyl]methyl]-9-hydroxy-5-methyl-7-oxo-N-[4-(trifluoromethyl)-2-[6-(trifluoromethyl)pyrimidin-4-yl]phenyl]-5,6-diazaspiro[3.5]non-8-ene-8-carboxamide [Example 413]”, the “Rate of uptake inhibition (%) (1 µM)” value (1 µM) is reported as 34%.
With `C[C@]12CCCN1N(Cc1ccc(Cl)cc1)C(=O)C(C(=O)Nc1ccc(C(F)(F)F)cc1-c1cc(C(F)(F)F)ncn1)=C2O` [Example 182] the “Rate of uptake inhibition (%) (1 µM)” value was 86%.
For `C[C@]12CCCN1N(Cc1cccc(F)c1F)C(=O)C(C(=O)Nc1ccc(C(F)(F)F)cc1-c1cnc(Br)cn1)=C2O` [Example 73], the “Rate of uptake inhibition (%) (1 µM)” value was 74%.
For `COCCN(C)CCOc1c(I)cc(CN2C(=O)C(C(=O)Nc3ccc(C(F)(F)F)cc3-c3cc(C(F)(F)F)ncn3)=C(O)C3(CCCC3)N2C)c(F)c1F` [Example 437, 7-[[2,3-Difluoro-5-iodo-4-[2-[2-methoxyethyl(methyl)amino]ethoxy]phenyl]methyl]-10-hydroxy-6-methyl-8-oxo-N-[4-(trifluoromethyl)-2-(6-(trifluoromethyl)pyrimidin-4-yl]phenyl]-6,7-diazaspiro[4.5]dec-9-ene-9-carboxamide], the “Rate of uptake inhibition (%) (1 µM)” value was 45%.
`C[C@]12CCCN1N(Cc1cccc(F)c1F)C(=O)C(C(=O)Nc1ccc(Br)cc1F)=C2O` [Example 75] was tested, and the “Rate of uptake inhibition (%) (1 µM)” value was 74%.
`CN1[C@@H](C(C)(C)C)C(O)=C(C(=O)Nc2ccc(Cl)cc2-c2ccc(C(F)(F)F)nc2)C(=O)N1Cc1cccc(F)c1F` [Example 239] was tested, and the “Rate of uptake inhibition (%) (1 µM)” value was 48%.
In the case of `C[C@]12CCCN1N(Cc1cccc(F)c1Cl)C(=O)C(C(=O)Nc1ccc(C(F)(F)F)cc1-c1ccc(C(F)(F)F)nc1)=C2O` [Example 201], the “Rate of uptake inhibition (%) (1 µM)” value is reported as 77%.
With `CN1N(Cc2cccc(F)c2F)C(=O)C(C(=O)Nc2ccc(C(F)(F)F)cc2-c2ncnc(C#N)c2Cl)=C(O)C1(C)C` [Example 312] the “Rate of uptake inhibition (%) (1 µM)” value was 74%.
`CN1N(Cc2ccc(OCCCOCCO)c(F)c2F)C(=O)C(C(=O)Nc2ccc(C(F)(F)F)cc2-c2cc(C(F)(F)F)ncn2)=C(O)C12CCCC2` [Example 395] was tested, and the “Rate of uptake inhibition (%) (1 µM)” value was 39%.
With `C[C@@H]1COC[C@H](C)N1CCOc1ccc(CN2C(=O)C(C(=O)Nc3ccc(C(F)(F)F)cc3-c3cc(C(F)(F)F)ncn3)=C(O)C3(CCC3)N2C)c(F)c1F` [Example 344] the “Rate of uptake inhibition (%) (1 µM)” value was 58%.
With `CN1N(Cc2ccc(OC3COC3)c(F)c2F)C(=O)C(C(=O)Nc2ccc(C(F)(F)F)cc2-c2cc(C(F)(F)F)ncn2)=C(O)C12CCC2` [Example 403, 6-(2,3-Difluoro-4-(oxetan-3-yloxy)benzyl)-9-hydroxy-5-methyl-7-oxo-N-(4-(trifluoromethyl)-2-(6-(trifluoromethyl)pyrimidin-4-yl)phenyl)-5,6-diazaspiro[3.5]non-8-ene-8-carboxamide] the “Rate of uptake inhibition (%) (1 µM)” value was 71%.
